Test results reported in ChEMBL document CHEMBL1201862, “PubChem BioAssay data set” (2004).
Active and inactive are the calls of the source.

What was measured:
[1] = biological target: DNA topoisomerase (Yersinia pestis, UniProt A0A2S9PM60); test: Yersinia topoisomerase I cleavage product accumulation – biochemical, cherry-pick, dose response (AID 588525)
[2] = system: Escherichia coli; test: microbe, parasite or virus in culture
[3] = system: Vero; test: cells; assay type: functional, cell-based; details: Chlorocebus sabaeus
[4] = system: Escherichia coli; test: microbe, parasite or virus in culture; remark: listed apart in the source
[5] = biological target: Protein disulfide-isomerase (Homo sapiens, UniProt P07237); test: inhibition of PDI-driven insulin aggregation – biochemical, turbidity, absorbance, cherry-picked samples, dose response (AID 602350); assay type: functional
Chain of Protein disulfide-isomerase (P07237 whole entry): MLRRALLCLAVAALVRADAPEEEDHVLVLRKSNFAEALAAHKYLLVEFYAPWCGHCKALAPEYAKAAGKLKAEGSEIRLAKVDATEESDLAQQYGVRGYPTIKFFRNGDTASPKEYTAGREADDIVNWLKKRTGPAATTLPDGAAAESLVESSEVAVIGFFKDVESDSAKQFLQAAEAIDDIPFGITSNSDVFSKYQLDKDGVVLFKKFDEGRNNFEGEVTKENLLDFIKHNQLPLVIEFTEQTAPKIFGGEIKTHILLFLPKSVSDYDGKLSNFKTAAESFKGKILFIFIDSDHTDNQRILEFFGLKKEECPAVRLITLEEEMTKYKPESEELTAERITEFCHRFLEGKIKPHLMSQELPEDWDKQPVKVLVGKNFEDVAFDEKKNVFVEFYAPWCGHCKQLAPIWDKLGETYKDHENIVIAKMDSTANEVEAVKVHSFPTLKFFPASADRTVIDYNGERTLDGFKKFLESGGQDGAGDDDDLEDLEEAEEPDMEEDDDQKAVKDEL

[6] = non-specific 3'UTR reporter inhibition in Clone20-Shn3RL – cell-based, Renilla luciferase, cherry-picked, counter-screen for Shn3 inhibitor project, dose response (AID 624133); assay type: functional
[7] = loss of viability in HepG2 cells – cell-based, CellTiter-Glo, cherry-picked, cytotoxicity control for Shn3 inhibitor project, dose response (AID 624134); assay type: functional
[8] = biological target: Heat shock protein HSP 90-alpha (Homo sapiens, UniProt P07900); assay type: functional, organism-based
[9] = reduction of Shn3 3'UTR-driven luciferase in osteoblasts – cell-based, Clone20 osteoblasts, firefly luciferase, cherry-picked, dose response (AID 624132); assay type: functional;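 also: firefly luciferase luminescence from reporter carrying the Shn3 3'UTR in osteoblasts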
[10] = biological target: Hexokinase-1 (Homo sapiens, UniProt P19367); test: SAR analysis of small molecule inhibitors of hexokinase domain containing I (HKDC1) in the hexokinase 1 selectivity assay. [Related pubchem assays (depositor defined):AID493160, AID493190]; assay type: functional
Chain of Hexokinase-1 (P19367 whole entry, the tested form may be a part): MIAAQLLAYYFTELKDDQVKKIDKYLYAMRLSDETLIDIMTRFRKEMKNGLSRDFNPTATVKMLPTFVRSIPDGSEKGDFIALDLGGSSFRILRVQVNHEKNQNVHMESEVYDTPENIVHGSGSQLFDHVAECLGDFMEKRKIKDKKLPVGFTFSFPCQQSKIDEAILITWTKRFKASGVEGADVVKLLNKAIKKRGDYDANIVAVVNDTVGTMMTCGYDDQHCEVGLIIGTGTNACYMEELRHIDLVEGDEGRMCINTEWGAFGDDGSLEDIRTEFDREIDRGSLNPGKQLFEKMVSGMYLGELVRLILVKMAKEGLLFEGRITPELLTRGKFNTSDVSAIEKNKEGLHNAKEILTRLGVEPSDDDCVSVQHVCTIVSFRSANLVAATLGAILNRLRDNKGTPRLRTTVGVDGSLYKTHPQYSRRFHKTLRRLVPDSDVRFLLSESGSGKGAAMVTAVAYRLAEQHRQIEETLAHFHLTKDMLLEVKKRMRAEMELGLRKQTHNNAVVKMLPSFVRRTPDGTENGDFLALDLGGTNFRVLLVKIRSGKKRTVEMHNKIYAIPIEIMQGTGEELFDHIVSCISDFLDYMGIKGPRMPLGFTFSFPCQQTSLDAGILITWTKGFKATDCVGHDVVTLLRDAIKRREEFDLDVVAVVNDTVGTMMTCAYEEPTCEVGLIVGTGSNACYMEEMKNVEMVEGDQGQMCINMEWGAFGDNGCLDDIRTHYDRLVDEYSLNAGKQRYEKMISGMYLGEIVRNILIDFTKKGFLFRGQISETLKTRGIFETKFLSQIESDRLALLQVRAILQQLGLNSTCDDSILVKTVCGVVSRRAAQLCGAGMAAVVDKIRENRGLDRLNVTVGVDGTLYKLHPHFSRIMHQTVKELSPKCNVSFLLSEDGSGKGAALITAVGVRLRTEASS

[11] = biological target: T1, Hexokinase HKDC1 (Homo sapiens, UniProt Q2TB90); test: SAR analysis of small molecule inhibitors of hexokinase domain containing I (HKDC1). [Related pubchem assays (depositor defined):AID493160, AID493190]; assay type: functional
T1 sequence (Q2TB90 whole entry): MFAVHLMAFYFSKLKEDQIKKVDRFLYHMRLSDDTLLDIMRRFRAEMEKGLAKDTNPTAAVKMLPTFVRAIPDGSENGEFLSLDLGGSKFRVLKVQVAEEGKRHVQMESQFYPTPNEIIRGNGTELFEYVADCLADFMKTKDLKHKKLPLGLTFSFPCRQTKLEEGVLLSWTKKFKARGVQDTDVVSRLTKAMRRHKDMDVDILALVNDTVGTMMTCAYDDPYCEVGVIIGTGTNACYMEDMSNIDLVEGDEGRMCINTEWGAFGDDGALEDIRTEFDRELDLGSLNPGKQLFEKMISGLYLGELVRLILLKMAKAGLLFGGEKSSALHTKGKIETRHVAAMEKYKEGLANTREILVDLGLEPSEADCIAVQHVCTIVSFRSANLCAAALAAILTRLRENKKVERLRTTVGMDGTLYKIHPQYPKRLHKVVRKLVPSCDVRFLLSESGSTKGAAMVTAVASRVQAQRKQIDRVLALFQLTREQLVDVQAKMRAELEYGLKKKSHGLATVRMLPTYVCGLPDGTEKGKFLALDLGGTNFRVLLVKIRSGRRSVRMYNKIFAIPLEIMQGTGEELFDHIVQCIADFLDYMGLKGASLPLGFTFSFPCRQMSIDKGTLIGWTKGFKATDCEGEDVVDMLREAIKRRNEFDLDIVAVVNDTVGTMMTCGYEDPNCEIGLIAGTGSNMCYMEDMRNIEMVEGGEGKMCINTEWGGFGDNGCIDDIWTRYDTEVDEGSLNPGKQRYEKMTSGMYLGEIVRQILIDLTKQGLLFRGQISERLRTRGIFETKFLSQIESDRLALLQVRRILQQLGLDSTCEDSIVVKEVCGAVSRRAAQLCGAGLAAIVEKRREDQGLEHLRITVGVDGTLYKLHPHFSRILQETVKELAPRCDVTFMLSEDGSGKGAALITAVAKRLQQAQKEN

[12] = biological target: Phospholipase D1 (Homo sapiens, UniProt Q13393); test: cellular phospholipase D1 inhibition IC50 – cell-based, dose response (AID 602151); assay type: functional;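 also: cellular PLD1 assay in Calu-1 cells stimulated with PMA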
Chain of Phospholipase D1 (Q13393 whole entry): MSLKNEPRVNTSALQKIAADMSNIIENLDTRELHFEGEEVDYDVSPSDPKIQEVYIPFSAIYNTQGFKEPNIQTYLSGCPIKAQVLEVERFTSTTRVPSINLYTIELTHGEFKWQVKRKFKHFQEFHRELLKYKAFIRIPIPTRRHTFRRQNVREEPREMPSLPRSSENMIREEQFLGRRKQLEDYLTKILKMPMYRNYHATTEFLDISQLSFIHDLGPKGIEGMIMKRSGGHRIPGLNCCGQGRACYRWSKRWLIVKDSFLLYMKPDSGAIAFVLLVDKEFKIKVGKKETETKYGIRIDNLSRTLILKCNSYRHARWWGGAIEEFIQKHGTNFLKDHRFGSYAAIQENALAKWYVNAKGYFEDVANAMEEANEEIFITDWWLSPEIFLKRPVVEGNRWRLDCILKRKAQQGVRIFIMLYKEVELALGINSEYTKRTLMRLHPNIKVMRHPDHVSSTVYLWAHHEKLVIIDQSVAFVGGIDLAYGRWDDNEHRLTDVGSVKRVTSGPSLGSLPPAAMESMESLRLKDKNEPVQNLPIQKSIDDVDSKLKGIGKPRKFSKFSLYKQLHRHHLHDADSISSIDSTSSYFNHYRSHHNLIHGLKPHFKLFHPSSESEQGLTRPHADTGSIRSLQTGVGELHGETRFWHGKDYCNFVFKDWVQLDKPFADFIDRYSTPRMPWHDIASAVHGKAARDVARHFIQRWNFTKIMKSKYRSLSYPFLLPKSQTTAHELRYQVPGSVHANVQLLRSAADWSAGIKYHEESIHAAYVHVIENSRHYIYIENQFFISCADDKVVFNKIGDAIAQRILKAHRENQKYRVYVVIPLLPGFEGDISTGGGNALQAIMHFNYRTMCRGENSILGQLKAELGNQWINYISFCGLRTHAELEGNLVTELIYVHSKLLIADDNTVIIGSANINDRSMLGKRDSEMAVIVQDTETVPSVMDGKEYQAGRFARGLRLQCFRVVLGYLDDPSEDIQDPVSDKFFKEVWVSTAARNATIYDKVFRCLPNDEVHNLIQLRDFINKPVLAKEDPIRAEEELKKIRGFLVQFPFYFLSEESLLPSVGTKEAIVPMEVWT

[13] = biological target: Phospholipase D2 (Homo sapiens, UniProt O14939); test: cellular phospholipase D2 inhibition IC50 – cell-based, dose response (AID 602147); assay type: functional;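 also: cellular assay in HEK293 cells overexpressing GFP-tagged PLD2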
[14] = biological target: T2, Sentrin-specific protease 8 (Homo sapiens, UniProt Q96LD8); test: inhibition of human SENP8 cleavage activity – biochemical, luminescence, SAR follow-up (AID 504501); assay type: functional
T2 sequence (Q96LD8 whole entry): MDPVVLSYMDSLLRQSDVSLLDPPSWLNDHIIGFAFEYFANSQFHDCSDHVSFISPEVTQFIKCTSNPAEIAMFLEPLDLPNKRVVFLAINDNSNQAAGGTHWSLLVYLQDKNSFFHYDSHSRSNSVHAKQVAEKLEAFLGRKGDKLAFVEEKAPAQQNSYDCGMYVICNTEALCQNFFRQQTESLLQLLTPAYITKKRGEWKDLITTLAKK

[15] = biological target: T3, Caspase-3 (Homo sapiens, UniProt P42574); test: SAR Analysis of small molecule inhibitors of Sentrin-specific proteases (SENPs) using a Caspase-3 Selectivity assay. [Related pubchem assays (depositor defined):AID2540, AID2599, AID434973, AID489001]; assay type: functional
T3 sequence (P42574 whole entry): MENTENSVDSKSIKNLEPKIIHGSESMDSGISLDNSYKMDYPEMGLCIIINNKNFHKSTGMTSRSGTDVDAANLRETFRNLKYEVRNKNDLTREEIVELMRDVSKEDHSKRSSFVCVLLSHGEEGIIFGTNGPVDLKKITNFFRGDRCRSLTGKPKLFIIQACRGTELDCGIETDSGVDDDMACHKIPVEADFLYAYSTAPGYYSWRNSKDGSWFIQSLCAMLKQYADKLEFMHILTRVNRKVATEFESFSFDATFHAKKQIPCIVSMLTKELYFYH

[16] = biological target: T4, Sentrin-specific protease 7 (Homo sapiens, UniProt Q9BQF6); test: inhibition of human SENP7 cleavage activity – biochemical, luminescence, SAR follow-up (AID 504497); assay type: functional
T4 sequence (Q9BQF6 whole entry): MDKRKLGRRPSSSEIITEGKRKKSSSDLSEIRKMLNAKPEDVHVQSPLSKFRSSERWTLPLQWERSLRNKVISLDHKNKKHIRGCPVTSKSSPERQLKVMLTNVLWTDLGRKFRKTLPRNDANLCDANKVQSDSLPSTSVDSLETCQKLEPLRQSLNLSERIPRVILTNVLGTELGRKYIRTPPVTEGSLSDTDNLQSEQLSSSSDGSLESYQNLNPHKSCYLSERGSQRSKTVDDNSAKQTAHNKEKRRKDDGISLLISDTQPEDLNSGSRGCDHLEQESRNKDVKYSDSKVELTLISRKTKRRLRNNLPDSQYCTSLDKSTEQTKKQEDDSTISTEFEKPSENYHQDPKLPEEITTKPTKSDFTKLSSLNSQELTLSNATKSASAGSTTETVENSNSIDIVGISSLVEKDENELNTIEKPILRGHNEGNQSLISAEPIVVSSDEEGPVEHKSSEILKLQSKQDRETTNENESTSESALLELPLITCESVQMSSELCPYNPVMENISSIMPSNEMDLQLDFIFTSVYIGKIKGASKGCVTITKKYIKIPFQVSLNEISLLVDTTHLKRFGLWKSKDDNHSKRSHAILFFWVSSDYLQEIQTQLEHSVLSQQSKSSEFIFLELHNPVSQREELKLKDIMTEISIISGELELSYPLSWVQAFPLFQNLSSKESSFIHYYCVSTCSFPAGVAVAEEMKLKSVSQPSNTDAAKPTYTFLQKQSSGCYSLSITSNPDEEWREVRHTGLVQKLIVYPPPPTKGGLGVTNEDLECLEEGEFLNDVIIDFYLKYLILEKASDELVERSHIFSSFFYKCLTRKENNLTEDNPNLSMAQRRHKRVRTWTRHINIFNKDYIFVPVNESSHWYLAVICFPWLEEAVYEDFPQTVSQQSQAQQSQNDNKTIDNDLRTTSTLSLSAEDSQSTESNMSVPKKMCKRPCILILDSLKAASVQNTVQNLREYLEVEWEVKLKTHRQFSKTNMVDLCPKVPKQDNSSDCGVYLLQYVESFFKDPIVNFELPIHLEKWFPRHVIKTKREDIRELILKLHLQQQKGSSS

[17] = biological target: T5, Sentrin-specific protease 6 (Homo sapiens, UniProt Q9GZR1); test: SAR Analysis of small molecule inhibitors of Sentrin-specific protease 6 (SENP6) using a Luminescent assay. [Related pubchem assays (depositor defined):AID2582, AID2599]; assay type: functional
T5 sequence (Q9GZR1 whole entry): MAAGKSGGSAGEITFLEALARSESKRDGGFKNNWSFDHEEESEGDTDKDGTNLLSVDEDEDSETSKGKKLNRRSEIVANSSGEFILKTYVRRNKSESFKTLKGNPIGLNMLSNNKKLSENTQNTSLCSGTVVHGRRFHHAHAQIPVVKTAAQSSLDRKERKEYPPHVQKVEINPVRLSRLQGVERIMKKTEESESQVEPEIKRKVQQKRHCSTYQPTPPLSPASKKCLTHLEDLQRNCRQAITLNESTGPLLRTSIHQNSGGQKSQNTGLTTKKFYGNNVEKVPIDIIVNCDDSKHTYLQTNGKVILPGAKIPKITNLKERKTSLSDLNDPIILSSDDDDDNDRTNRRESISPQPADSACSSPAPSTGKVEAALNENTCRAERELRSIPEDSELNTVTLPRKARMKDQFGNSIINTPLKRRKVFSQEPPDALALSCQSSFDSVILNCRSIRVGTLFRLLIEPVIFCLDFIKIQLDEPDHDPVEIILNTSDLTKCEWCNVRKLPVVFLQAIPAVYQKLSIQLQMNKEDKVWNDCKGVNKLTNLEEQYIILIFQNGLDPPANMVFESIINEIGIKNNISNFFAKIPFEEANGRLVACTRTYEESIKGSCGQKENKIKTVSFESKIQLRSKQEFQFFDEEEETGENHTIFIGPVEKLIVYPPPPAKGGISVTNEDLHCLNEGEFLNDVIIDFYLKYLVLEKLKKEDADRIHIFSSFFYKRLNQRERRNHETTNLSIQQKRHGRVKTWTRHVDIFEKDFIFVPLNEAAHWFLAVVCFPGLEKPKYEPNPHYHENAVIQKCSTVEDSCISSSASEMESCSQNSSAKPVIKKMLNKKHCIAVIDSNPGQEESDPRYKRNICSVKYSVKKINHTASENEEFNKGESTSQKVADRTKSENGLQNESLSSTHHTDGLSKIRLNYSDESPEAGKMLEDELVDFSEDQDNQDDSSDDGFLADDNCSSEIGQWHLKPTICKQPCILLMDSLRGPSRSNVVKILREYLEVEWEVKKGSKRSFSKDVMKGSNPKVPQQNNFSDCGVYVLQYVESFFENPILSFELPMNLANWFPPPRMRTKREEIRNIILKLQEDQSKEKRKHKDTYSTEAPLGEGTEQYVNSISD

[18] = biological target: DNA dC->dU-editing enzyme APOBEC-3G (Homo sapiens, UniProt Q9HC16); test: inhibition of APOBEC3G ssDNA deamination – biochemical, fluorescence, single-stranded DNA substrate, SAR follow-up (AID 602136); assay type: functional; details: read-out: IC50_Mean
Chain of DNA dC->dU-editing enzyme APOBEC-3G (Q9HC16 whole entry): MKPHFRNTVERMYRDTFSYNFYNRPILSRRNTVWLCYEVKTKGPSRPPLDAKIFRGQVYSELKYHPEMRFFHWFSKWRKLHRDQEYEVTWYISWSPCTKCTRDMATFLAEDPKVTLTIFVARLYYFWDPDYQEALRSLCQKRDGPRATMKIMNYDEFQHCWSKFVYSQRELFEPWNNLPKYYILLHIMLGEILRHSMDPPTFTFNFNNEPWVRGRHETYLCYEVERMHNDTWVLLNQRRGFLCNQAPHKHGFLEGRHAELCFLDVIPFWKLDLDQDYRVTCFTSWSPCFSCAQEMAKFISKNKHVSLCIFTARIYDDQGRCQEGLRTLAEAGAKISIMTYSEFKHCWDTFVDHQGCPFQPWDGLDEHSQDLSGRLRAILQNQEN

[19] = biological target: DNA dC->dU-editing enzyme APOBEC-3A (Homo sapiens, UniProt P31941); test: SAR analysis of small molecule inhibitors of APOBEC3A DNA Deaminase via a fluorescence-based single-stranded DNA deaminase assay.; assay type: functional; details: read-out: IC50_Mean
Chain of DNA dC->dU-editing enzyme APOBEC-3A (P31941 whole entry): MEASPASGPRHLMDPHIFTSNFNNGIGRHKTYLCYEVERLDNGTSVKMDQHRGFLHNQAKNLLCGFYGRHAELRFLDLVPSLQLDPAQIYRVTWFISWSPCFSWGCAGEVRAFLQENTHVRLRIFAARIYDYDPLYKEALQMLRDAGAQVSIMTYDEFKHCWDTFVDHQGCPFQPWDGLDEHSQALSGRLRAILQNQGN

[20] = biological target: Sphingosine 1-phosphate receptor 4 (Homo sapiens, UniProt O95977); test: Late-stage fluorescence-based dose-response cell-based counterscreen assay to identify agonists of the Sphingosine 1-Phosphate Receptor 3 (S1P3): Sphingosine 1-Phosphate Receptor 4 (S1P4) agonist assay.; assay type: functional
Chain of Sphingosine 1-phosphate receptor 4 (O95977 whole entry): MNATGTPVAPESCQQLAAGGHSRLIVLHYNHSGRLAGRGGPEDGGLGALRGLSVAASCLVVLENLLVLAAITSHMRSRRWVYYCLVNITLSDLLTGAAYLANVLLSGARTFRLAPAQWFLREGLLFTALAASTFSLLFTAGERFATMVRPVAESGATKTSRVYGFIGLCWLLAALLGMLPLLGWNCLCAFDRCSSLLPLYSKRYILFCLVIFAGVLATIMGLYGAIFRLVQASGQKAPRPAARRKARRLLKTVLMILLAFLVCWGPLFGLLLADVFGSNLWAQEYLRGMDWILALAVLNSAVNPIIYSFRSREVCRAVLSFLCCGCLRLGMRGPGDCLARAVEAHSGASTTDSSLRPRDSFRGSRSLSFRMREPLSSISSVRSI

[21] = biological target: Sphingosine 1-phosphate receptor 2 (Homo sapiens, UniProt O95136); test: Late-stage fluorescence-based dose-response cell-based counterscreen assay to identify agonists of the Sphingosine 1-Phosphate Receptor 3 (S1P3): Sphingosine 1-Phosphate Receptor 2 (S1P2) agonist assay.; assay type: functional
Chain of Sphingosine 1-phosphate receptor 2 (O95136 whole entry): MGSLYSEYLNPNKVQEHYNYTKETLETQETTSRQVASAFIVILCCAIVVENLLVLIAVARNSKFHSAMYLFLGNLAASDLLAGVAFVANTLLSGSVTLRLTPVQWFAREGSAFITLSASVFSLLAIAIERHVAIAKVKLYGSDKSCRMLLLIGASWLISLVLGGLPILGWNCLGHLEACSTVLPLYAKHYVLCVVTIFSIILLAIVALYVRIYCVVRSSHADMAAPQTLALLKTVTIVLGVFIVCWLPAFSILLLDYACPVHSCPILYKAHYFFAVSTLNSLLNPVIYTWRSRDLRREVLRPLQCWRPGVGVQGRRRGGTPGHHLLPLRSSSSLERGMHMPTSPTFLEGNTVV

[22] = system: Jurkat; test: SAR Analysis of small molecule inhibitors of both B-cell and T-cell specific antigen receptor-induced NF-kB activation in a Jurkat cell line using a luminescence assay. [Related pubchem assays (depositor defined):AID435003, AID435022, AID465, AID489029]; assay type: functional, cell-based; details: Homo sapiens
[23] = system: HEK293; test: SAR Analysis of small molecule inhibitors of both B-cell and T-cell specific antigen receptor-induced NF-kB activation in a HEK-293T cell line using a luminescence assay. [Related pubchem assays (depositor defined):AID435003, AID435022, AID465, AID489019, AID489029]; assay type: functional, cell-based; details: Homo sapiens
[24] = system: HEK293; test: HEK293T cell viability loss, resazurin readout – resazurin fluorescence, cytotoxicity control for NF-kB activator project, SAR follow-up (AID 493251); assay type: functional, cell-based; details: Homo sapiens

Chain of DNA topoisomerase (A0A2S9PM60 whole entry): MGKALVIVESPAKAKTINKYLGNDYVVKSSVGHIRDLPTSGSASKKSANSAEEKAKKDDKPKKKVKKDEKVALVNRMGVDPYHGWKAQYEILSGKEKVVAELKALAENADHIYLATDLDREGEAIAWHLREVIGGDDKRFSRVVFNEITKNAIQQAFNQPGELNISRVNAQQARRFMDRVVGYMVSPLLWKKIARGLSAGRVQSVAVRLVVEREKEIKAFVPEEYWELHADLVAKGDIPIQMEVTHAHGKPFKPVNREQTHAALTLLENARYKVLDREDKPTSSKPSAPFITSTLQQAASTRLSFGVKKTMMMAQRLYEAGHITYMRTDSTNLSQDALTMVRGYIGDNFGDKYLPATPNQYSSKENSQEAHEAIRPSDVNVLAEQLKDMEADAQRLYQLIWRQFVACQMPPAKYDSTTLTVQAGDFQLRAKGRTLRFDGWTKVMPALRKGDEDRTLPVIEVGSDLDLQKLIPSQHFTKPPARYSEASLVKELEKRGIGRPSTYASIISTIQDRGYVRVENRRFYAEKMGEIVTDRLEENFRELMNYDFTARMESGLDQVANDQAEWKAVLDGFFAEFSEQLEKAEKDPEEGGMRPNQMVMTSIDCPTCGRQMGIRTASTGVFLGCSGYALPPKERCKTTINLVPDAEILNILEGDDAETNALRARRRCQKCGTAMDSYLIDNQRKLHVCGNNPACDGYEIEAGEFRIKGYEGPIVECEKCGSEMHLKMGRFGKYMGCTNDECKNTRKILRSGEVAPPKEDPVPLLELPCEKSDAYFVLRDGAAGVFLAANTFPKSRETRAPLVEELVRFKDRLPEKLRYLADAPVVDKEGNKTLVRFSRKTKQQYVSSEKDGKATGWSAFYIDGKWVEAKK

Compound: COc1cc2ccccc2cc1C(=O)OCC(=O)N(CC(C)C)c1c(N)n(Cc2ccccc2)c(=O)[nH]c1=O
- AC50 [1]: 20.8 µM (active)

Compound: COc1cc2cc(C(=O)N3CC(COS(C)(=O)=O)c4ccc(O)cc43)[nH]c2c(OC)c1OC (centres undefined)
- AC50 [2]: 22.8 µM (active)
- IC50 [3]: 8.57 µM (active)
- AC50 [4]: 4.26 µM (active)
- AC50 [5]: 18 µM (active)
- AC50 [6]: < 0.26 µM (active)
- AC50 [7]: 0.352 µM (active)
- AC50 [8]: 0.708 µM (active)
- AC50 [9]: < 0.26 µM (active)

Compound: Cc1ccc(CSc2nnc(NC(=O)c3ccc4ncsc4c3)s2)cc1
- IC50 [10]: > 80 µM (inactive)
- IC50 [11]: > 80 µM (inactive)

Compound: O=C(NCCN1CCC(n2c(=O)[nH]c3ccccc32)CC1)c1cccc(F)n1
- IC50 [12]: 0.19 µM (active)
- IC50 [13]: 1.3 µM (active)

Compound: CC(C)CC(=O)Nc1ccc(-c2nc3cc(Cl)ccc3o2)cc1
- IC50 [14]: > 99 µM (inactive)
- IC50 [15]: 51.9 µM (active)
- IC50 [16]: > 99 µM (inactive)
- IC50 [17]: > 99 µM (inactive)

Compound: Cn1c(SCC(=O)N(Cc2ccccc2)Cc2ccco2)nnc1-c1ccc(F)cc1
- IC50 [18]: > 99 µM (inactive)
- IC50 [19]: > 99 µM (inactive)

Compound: CC1CCCCC1N(C(=O)c1cc(C2CC2)on1)C1CCCCC1 (centres undefined)
- EC50 [20]: > 50 µM (inactive)
- EC50 [21]: > 50 µM (inactive)

Compound: Nc1cccc2cccnc12 [8-AMINOQUINOLINE]
- IC50 [22]: > 79 µM (inactive)
- IC50 [23]: > 79 µM (inactive)
- IC50 [24]: > 80 µM (inactive)
